Experimental data from patent publication US9834571B2, “Compounds for inhibiting cell proliferation in EGFR-driven cancers” (ARIAD Pharmaceuticals, Inc., priority 2012, dated 2017).
Where two headings read alike, the source gives them in different places.

Legend:
[1] = target: T1, BaF3 cells expressing the target EGFR mutations (Homo sapiens, UniProt P00533, T790M, cells depend on it, form not given); test: Antiproliferative activity (MTT) against BaF3 cells expressing the target EGFR mutations; format: cell-based; details: BAF3 EGFR DEL T790M PURO POOL cells, read-out: IC50, BAF3 EGFR DEL T790M PURO POOL
T1 construct: IC50, BAF3 EGFR DEL T790M PURO POOL; other: BAF3 EGFR DEL T790M PURO POOL cells, MTT; other: BAF3 EGFR DEL T790M PURO POOL cells; MTT
Method in brief: (§1)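 Viability by MTT colorimetry. Cells: BaF3 transfected with mutant EGFR, plus a wildtype-EGFR BaF3 counter-screen.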

[2] = target: T2, BaF3 cells expressing the target EGFR mutations (Homo sapiens, UniProt P00533, T790M/L858R, cells depend on it); test: as above; format: cell-based; details: BAF3 EGFR L858R-T790M PURO POOL cells, read-out: IC50, BAF3 EGFR L858R-T790M PURO POOL
T2 construct: IC50, BAF3 EGFR L858R-T790M PURO POOL; other: BAF3 EGFR L858R-T790M PURO POOL cells, MTT; IC50, BAF3 EGFR L858R-T790M PURO POOL; other: BAF3 EGFR L858R-T790M PURO POOL cells; MTT
T2 sequence (P00533 whole entry T790M/L858R): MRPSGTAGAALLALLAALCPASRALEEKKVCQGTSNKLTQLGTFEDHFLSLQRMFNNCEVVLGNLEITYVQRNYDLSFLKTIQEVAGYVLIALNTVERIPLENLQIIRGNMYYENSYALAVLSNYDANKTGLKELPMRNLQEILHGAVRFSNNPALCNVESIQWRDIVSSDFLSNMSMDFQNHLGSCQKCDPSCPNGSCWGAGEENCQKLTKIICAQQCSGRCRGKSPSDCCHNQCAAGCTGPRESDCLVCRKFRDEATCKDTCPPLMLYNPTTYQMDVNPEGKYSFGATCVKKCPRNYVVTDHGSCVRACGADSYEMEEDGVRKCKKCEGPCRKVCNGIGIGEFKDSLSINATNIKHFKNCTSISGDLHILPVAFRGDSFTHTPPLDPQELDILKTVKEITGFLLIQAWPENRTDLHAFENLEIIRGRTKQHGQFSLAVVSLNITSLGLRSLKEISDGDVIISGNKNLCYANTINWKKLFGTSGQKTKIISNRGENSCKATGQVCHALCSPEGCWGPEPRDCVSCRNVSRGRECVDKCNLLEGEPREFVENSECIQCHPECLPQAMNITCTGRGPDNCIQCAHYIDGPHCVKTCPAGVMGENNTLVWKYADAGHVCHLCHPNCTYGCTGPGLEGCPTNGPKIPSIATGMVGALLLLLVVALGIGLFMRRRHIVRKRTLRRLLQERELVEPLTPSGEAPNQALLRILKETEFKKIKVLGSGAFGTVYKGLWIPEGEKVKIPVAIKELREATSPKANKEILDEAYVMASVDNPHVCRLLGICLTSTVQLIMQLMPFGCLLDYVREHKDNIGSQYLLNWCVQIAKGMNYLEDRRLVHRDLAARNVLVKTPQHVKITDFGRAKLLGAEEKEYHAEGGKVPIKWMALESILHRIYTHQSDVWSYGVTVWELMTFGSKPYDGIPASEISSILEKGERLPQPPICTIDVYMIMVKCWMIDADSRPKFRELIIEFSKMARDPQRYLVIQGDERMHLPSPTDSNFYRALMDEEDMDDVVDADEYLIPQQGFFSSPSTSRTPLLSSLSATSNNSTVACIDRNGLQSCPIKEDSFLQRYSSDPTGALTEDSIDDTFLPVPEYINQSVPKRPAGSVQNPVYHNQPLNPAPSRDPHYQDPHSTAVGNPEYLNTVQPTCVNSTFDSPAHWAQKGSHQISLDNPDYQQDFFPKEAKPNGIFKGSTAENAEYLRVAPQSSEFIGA
Method in brief: as §1

EGFR L858R = EGFR L858R (Homo sapiens, UniProt P00533, L858R); test: Kinase inhibitory activity against EGFR bearing the L858R mutation; format: biochemical; details: 10 μM ATP, read-out: IC50 for kinase inhibition, EGFR L858R
Chain of EGFR L858R (P00533 25-1210 L858R): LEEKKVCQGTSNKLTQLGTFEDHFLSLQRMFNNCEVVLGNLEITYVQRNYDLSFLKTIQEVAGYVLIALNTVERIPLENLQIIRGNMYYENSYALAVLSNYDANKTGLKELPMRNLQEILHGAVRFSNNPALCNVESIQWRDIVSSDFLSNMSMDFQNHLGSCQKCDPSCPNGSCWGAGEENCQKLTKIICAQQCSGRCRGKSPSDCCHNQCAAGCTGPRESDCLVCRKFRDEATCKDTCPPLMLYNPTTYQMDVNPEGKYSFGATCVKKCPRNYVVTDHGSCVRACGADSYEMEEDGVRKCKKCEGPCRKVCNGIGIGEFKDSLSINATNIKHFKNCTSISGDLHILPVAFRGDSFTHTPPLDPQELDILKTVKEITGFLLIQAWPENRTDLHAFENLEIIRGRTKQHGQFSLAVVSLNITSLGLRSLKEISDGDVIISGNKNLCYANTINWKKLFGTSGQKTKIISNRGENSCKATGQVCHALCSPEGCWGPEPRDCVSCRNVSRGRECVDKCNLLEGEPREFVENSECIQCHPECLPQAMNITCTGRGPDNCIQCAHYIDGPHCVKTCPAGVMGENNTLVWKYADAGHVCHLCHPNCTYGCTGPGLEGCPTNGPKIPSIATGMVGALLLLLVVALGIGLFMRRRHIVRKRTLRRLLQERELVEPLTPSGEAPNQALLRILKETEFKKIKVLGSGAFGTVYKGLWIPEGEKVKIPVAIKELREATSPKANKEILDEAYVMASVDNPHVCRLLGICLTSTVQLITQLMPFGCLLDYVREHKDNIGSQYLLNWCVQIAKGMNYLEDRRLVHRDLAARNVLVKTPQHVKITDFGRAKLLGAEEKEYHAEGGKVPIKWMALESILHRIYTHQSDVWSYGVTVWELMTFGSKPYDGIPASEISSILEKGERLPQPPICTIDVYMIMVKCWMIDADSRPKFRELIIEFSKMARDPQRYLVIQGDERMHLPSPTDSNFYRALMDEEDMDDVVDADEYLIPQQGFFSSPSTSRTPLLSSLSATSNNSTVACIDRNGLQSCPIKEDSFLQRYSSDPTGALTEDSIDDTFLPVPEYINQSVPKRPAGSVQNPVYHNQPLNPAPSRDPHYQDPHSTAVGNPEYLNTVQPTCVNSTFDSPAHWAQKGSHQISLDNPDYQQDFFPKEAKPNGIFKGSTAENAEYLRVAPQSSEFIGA
Method in brief: (§2)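 Ten-point dose-response curves were run in singlicate from a 3 μM top concentration, with ATP at 10 μM.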

[3] = system: BaF3 cells expressing wildtype EGFR; test: Antiproliferative activity (MTT) against control BaF3 cells expressing wildtype EGFR; format: cell-based; details: Mus musculus
Method in brief: as §1

EGFR L858R/T790M = EGFR L858R/T790M (Homo sapiens, UniProt P00533, L858R/T790M); test: Kinase inhibitory activity against EGFR bearing the L858R/T790M double mutation; format: biochemical; details: 10 μM ATP, read-out: IC50 for kinase inhibition, EGFR L858R T790M
Chain of EGFR L858R/T790M (P00533 25-1210 T790M/L858R): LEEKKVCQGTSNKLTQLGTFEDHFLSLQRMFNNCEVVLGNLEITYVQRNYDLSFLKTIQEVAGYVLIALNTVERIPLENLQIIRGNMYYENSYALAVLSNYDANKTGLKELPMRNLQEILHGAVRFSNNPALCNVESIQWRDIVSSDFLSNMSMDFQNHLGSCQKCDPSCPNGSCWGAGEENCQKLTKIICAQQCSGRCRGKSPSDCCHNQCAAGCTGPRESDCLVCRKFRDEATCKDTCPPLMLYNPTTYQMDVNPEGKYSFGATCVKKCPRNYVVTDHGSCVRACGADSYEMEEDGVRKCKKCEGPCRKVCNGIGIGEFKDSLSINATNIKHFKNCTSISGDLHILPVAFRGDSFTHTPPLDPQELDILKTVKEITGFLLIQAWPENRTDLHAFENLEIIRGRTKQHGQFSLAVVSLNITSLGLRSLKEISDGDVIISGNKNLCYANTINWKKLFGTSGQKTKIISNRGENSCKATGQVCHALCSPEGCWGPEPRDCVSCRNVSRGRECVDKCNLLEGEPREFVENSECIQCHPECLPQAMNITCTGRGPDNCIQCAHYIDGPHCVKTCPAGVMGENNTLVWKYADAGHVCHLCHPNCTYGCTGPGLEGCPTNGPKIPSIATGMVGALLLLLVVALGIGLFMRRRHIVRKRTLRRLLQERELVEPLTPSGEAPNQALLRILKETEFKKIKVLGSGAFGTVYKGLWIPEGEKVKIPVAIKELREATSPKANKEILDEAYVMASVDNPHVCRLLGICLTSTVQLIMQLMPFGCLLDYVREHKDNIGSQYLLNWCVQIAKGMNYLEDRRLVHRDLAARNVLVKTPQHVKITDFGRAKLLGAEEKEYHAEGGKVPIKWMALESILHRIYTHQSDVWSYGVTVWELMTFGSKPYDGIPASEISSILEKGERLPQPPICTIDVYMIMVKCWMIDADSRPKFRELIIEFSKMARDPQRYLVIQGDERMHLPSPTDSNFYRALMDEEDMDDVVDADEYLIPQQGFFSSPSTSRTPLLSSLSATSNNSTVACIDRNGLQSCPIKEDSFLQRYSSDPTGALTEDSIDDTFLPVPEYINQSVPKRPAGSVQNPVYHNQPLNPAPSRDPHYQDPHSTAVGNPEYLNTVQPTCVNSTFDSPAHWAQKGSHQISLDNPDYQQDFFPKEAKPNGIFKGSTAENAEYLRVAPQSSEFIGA
Method in brief: as §2

[4] = target: human EGFR (native sequence) (Homo sapiens, UniProt P00533); test: Kinase inhibitory activity against human EGFR (native sequence); format: biochemical; details: 10 μM ATP, read-out: IC50 for kinase inhibition, EGFR
Chain of human EGFR (native sequence) (P00533 25-1210): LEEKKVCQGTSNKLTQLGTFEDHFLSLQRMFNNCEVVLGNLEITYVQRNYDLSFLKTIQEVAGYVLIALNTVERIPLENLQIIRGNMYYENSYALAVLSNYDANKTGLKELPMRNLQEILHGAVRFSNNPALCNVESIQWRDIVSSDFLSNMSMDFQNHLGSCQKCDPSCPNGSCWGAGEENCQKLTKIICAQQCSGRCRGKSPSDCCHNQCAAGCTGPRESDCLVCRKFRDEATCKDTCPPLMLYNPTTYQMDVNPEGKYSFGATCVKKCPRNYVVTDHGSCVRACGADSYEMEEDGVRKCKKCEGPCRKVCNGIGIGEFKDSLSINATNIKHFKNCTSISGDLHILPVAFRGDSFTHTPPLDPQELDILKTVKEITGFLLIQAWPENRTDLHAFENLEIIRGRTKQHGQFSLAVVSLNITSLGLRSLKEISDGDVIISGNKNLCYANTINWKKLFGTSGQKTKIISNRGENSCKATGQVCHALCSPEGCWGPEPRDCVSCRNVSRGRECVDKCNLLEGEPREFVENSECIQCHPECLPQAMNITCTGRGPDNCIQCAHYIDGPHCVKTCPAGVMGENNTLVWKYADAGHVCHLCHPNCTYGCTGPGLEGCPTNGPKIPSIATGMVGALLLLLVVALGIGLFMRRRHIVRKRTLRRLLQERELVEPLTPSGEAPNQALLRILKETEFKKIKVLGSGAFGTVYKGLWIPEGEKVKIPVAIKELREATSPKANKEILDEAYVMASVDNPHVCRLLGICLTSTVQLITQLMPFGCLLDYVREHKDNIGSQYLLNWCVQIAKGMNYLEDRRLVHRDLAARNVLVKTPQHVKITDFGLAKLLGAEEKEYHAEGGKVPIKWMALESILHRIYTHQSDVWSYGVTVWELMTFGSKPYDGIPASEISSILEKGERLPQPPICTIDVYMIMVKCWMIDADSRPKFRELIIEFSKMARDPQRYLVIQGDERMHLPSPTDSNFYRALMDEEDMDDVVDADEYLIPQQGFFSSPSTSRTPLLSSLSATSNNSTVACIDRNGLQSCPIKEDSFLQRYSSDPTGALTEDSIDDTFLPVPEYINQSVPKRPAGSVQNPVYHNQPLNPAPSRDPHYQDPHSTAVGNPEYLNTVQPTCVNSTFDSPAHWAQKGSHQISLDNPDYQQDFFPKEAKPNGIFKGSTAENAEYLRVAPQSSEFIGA
Method in brief: as §2

[5] = 10 pt curves, 3 μM top concentration
[6] = EGFR L858R/T790M double mutation

Compound	GI50 [1]	GI50 [2]	IC50 (EGFR L858R; [5])	IC50 ([3]; BAF3 parental cells)	IC50 (EGFR L858R/T790M; [5])	IC50 [4, 5]	IC50 (EGFR L858R; EGFR L858R)	IC50 ([3]; BAF3 PARENTAL cells (control))	IC50 (EGFR L858R/T790M; [6])	IC50 ([4]; human EGFR native sequence)
C=CC(=O)Nc1cc(Nc2ncc(Cl)c(Nc3ccccc3P(C)(C)=O)n2)c(OC)cc1C#CCN(C)CC [Example 162, N-(5-((5-chloro-4-((2-(dimethylphosphoryl)phenyl)amino)pyrimidin-2-yl)amino)-2-(3-(ethyl(methyl)amino)prop-1-yn-1-yl)-4-methoxyphenyl)acrylamide]	< 50 nM	< 50 nM	< 50 nM	≥ 250 nM	< 50 nM	< 50 nM	–	–	–	–
C=CC(=O)Nc1cc(Nc2ncc(Cl)c(Nc3ccccc3P(C)(C)=O)n2)c(OC)cc1OC1CCCN(CCOC)C1 (stereo not drawn) [Example 123, N-(5-((5-chloro-4-((2-(dimethylphosphoryl)phenyl)amino)pyrimidin-2-yl)amino)-4-methoxy-2-((1-(2-methoxyethyl)piperidin-3-yl)oxy)phenyl)acrylamide]	< 50 nM	< 50 nM	< 50 nM	≥ 250 nM	< 50 nM	< 50 nM	–	–	–	–
COc1ccc(NC(=O)/C=C/CN2CCCC2)cc1Nc1ncc(Cl)c(Nc2ccccc2P(C)(C)=O)n1 [Example 95, (E)—N-(3-((5-chloro-4-((2-(dimethylphosphoryl)phenyl)amino)pyrimidin-2-yl)amino)-4-methoxyphenyl)-4-(pyrrolidin-1-yl)but-2-enamide]	50 to 100 nM	≥ 250 nM	–	–	–	–	< 50 nM	≥ 250 nM	< 50 nM	≥ 250 nM
C=CC(=O)Nc1cc(Nc2ncc(Cl)c(Nc3ccccc3P(C)(C)=O)n2)c(OC)cc1N1CCC(N2CCOCC2)C1 (stereo not drawn) [Example 28, N-(5-((5-chloro-4-((2-(dimethylphosphoryl)phenyl)amino)pyrimidin-2-yl)amino)-4-methoxy-2-(3-morpholinopyrrolidin-1-yl)phenyl)acrylamide]	< 50 nM	< 50 nM	–	–	–	–	< 50 nM	≥ 250 nM	< 50 nM	< 50 nM
COc1ccc(NC(=O)C#CCN(C)C)cc1Nc1ncc(Cl)c(Nc2ccccc2P(C)(C)=O)n1 [Example 81, N-(3-((5-chloro-4-((2-(dimethylphosphoryl)phenyl)amino)pyrimidin-2-yl)amino)-4-methoxyphenyl)-4-(dimethylamino)but-2-ynamide]	< 50 nM	< 50 nM	–	–	–	–	< 50 nM	≥ 250 nM	< 50 nM	< 50 nM
C=CC(=O)Nc1cc(Nc2ncc(Cl)c(Nc3ccccc3P(C)(C)=O)n2)c(OC)cc1OCc1cccnc1 [Example 10, N-(5-((5-chloro-4-((2-(dimethylphosphoryl)phenyl)amino)pyrimidin-2-yl)amino)-4-methoxy-2-(pyridin-3-ylmethoxy)phenyl)acrylamide]	50 to 100 nM	101 to 250 nM	–	–	–	–	< 50 nM	≥ 250 nM	< 50 nM	50 to 100 nM
C=CC(=O)Nc1cc(Nc2ncc(Cl)c(Nc3ccccc3P(C)(C)=O)n2)c(OC)cc1N1CCCC(N(C)C)C1 (stereo not drawn) [Example 30, N-(5-((5-chloro-4-((2-(dimethylphosphoryl)phenyl)amino)pyrimidin-2-yl)amino)-2-(3-(dimethylamino)piperidin-1-yl)-4-methoxyphenyl)acrylamide]	< 50 nM	< 50 nM	–	–	–	–	< 50 nM	≥ 250 nM	< 50 nM	< 50 nM
C=CC(=O)Nc1ccc(OC2COC2)c(Nc2ncc(Cl)c(Nc3ccccc3P(C)(C)=O)n2)c1 [Example 138, N-(3-((5-chloro-4-((2-(dimethylphosphoryl)phenyl)amino)pyrimidin-2-yl)amino)-4-(oxetan-3-yloxy)phenyl)acrylamide]	≥ 250 nM	≥ 250 nM	≥ 250 nM	≥ 250 nM	≥ 250 nM	≥ 250 nM	–	–	–	–
C=CC(=O)Nc1cc(Nc2ncc(Cl)c(Nc3ccccc3P(C)(C)=O)n2)c(OC)cc1N1CCC(O)C1 (stereo not drawn) [Example 32, N-(5-((5-chloro-4-((2-(dimethylphosphoryl)phenyl)amino)pyrimidin-2-yl)amino)-2-(3-hydroxypyrrolidin-1-yl)-4-methoxyphenyl)acrylamide]	50 to 100 nM	101 to 250 nM	–	–	–	–	< 50 nM	≥ 250 nM	< 50 nM	< 50 nM
C=CC(=O)Nc1cc(Nc2ncc(Cl)c(Nc3ccccc3P(C)(C)=O)n2)c(OC)cc1N1CCC(N2CCOCC2)CC1 [Example 70, N-(5-((5-chloro-4-((2-(dimethylphosphoryl)phenyl)amino)pyrimidin-2-yl)amino)-4-methoxy-2-(4-morpholinopiperidin-1-yl)phenyl)acrylamide]	< 50 nM	< 50 nM	–	–	–	–	< 50 nM	≥ 250 nM	< 50 nM	< 50 nM
C=CC(=O)Nc1cc(Nc2ncc(Cl)c(Nc3ccccc3P(C)(C)=O)n2)c(OC)cc1OC(CF)CN(CC)CC (stereo not drawn) [Example 121, N-(5-((5-chloro-4-((2-(dimethylphosphoryl)phenyl)amino)pyrimidin-2-yl)amino)-2-((1-(diethylamino)-3-fluoropropan-2-yl)oxy)-4-methoxyphenyl)acrylamide]	< 50 nM	< 50 nM	< 50 nM	≥ 250 nM	< 50 nM	< 50 nM	–	–	–	–
C=CC(=O)Nc1cc(Nc2ncc(Cl)c(Nc3ccccc3P(C)(C)=O)n2)c(OC)cc1C#CCCN(C)C [Example 128, N-(5-((5-chloro-4-((2-(dimethylphosphoryl)phenyl)amino)pyrimidin-2-yl)amino)-2-(4-(dimethylamino)but-1-yn-1-yl)-4-methoxyphenyl)acrylamide]	< 50 nM	< 50 nM	< 50 nM	≥ 250 nM	< 50 nM	< 50 nM	–	–	–	–
C=CC(=O)Nc1cc(Nc2ncc(Cl)c(Nc3ccccc3P(C)(C)=O)n2)c(OC)cc1CN1CCN(C)CC1 [Example 55, N-(5-((5-chloro-4-((2-(dimethylphosphoryl)phenyl)amino)pyrimidin-2-yl)amino)-4-methoxy-2-((4-methylpiperazin-1-yl)methyl)phenyl)acrylamide]	< 50 nM	50 to 100 nM	–	–	–	–	< 50 nM	≥ 250 nM	< 50 nM	< 50 nM
C=CC(=O)Nc1cc(Nc2ncc(Cl)c(Nc3ccccc3P(C)(C)=O)n2)c(OC)cc1C#CCN(C)CCOC [Example 161, N-(5-((5-chloro-4-((2-(dimethylphosphoryl)phenyl)amino)pyrimidin-2-yl)amino)-4-methoxy-2-(3-((2-methoxyethyl)(methyl)amino)prop-1-yn-1-yl)phenyl)acrylamide]	< 50 nM	< 50 nM	< 50 nM	≥ 250 nM	< 50 nM	< 50 nM	–	–	–	–
C=CC(=O)Nc1cc(Nc2ncc(Cl)c(Nc3ccccc3P(C)(C)=O)n2)c(OC)cc1N1CCC(N2CCCC2)C1 (stereo not drawn) [Example 36, N-(2-([1,3′-bipyrrolidin]-1′-yl)-5-((5-chloro-4-((2-(dimethylphosphoryl)phenyl)amino)pyrimidin-2-yl)amino)-4-methoxyphenyl)acrylamide]	< 50 nM	< 50 nM	–	–	–	–	< 50 nM	≥ 250 nM	< 50 nM	< 50 nM
